Reference: patent US7432288B2, “Pyrrole-2,5-dione derivatives as Liver X receptor modulators” (AstraZeneca AB, priority 2003, dated 2008)

Molecular target: T1, LXRalpha and/or beta (human LXR ligand binding domain)
T1 construct: fused on or other part: His-tag (6xHis) on the LXR-LBD
Test: Co-activator recruitment assay (time-resolved fluorescence, SRC-1 peptide)
Type: biochemical
Conditions: LXR subtype (alpha or beta) not stated for these values; 22-R Hydroxycholesterol at 50 μM as 100% control; read-out: EC50 in coactivator recruitment assays
Excerpt: The Ligand Binding Domain (LBD) of human LXRalpha (amino acid 205-447) and LXRbeta (amino acid 216-461) was produced by recombinant techniques in E coli. A fragment of the human Steroid Receptor Co-Activator-1 (SRC-1) was produced as a synthetic peptide. An anti-6His-antibody coupled with Europium (Eu^3+) was used to recognize the His-tag on the LXR-LBD and Allophycocyanin (APC) coupled to streptavidin was used to recognize the biotinylated SRC-1. Agonist binding to LXRalpha or LXRbeta enhances the affinity of LXR towards SRC-1 and thereby brings Eu^3+ and APC in close proximity. Eu^3+ is excited at 337 nm and emitts light at 620 nm. This emission, when in close proximity, excites APC to emit light at 665 nm.
Dilution plates with compounds in DMSO were further diluted in buffer {20 mM [Tris(hydroxymethyl)aminomethane] pH 7.5, 0.125% CHAPS {3-[(3-Cholamidopropyl)dimethylammonio]-1-propanesulfonate}, 2 mM DTT (Dithiothreitol) and 0.05% BSA (Bovine Serum Albumin)} in order to reduce DMSO concentration, 0.5 μl to 13.5 μl. To this, 6 μl assay mix was added and the plates (384-well V-groove plates) were incubated at room temperature for 60 to 80 min. […] Time-resolved fluorescence readings were done in a Wallac Victor reader at 665 nm followed by reading at 615 nm. […]

EC50 | SMILES
150 nM | COc1ccc(NC2=C(c3ccccc3)C(=O)N(Cc3ccc(N(C)C)cc3)C2=O)cc1 [Example 13, 1-[4-(Dimethylamino)benzyl]-3-[(4-methoxyphenyl)amino]-4-phenyl-1H-pyrrole-2,5-dione]
110 nM | COc1ccc(NC2=C(c3ccccc3)C(=O)N(Cc3cc(C)on3)C2=O)cc1 [Example 22, 3-[(4-Methoxyphenyl)amino]-1-[(5-methylisoxazol-3-yl)methyl]-4-phenyl-1H-pyrrole-2,5-dione]
